{
  "source": "patent US20040019027A1",
  "about": "“Method of treating cerebrotendinous xanthomatosis” (priority 2002, published 2004)",
  "key": {"mouse PXR": {"molecular_target": "T1, mouse PXR (Mus musculus, UniProt O54915)", "T1 sequence (O54915 104-431)": "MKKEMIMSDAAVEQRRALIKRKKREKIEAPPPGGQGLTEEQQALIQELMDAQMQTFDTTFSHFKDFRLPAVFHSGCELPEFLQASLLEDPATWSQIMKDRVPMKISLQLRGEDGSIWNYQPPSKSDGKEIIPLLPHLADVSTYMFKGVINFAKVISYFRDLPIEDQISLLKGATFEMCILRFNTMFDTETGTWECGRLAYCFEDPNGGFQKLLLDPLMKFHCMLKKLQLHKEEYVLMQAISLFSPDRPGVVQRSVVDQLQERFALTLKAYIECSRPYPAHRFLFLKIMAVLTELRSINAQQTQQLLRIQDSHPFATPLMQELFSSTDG", "assay": "GAL-mouse PXR luciferase reporter gene assay in transfected CV-1 cells", "assay_type": "cell-based", "conditions": "10 μM; CV-1 cells; FIG. 3(a), FIG. 8(a)", "procedure": "CV-1 cells were transiently transfected with a GAL-mouse PXR expression vector, a GAL4 reporter construct, and a β-galactosidase vector as an internal control. Where noted, the bile acid transporter NTCP was added to the transfection to promote the transport of membrane-impermeable bile acids. Transfected cells were exposed to the indicated compounds (10 μM each), and fold activation was determined using luciferase and β-galactosidase enzyme activity assays. […] The transfected CV-1 cells were treated with multiple concentrations of each sterol. Error bars in this figure and subsequent figures represent the standard error of the mean (SEM) from representative experiments.\nIt is questioned whether β-cholestane-3α, 7α, 12α-triol (Triol) levels were elevated in whole liver extracts from CYP27 −/− mice. To show the level of 5β-cholestane-3α, 7α, 12α-triol in mouse liver extract, wild-type or CYP27 −/−mouse liver tissue (0.5 g) was extracted with 7.5 ml of ethyl acetate/methanol (2:1, vol/vol) along with 5β-cholestane-3β,5α,6β-triol (25 μg) as an internal control for extraction efficiency. […] The extraction was repeated three times, and the organic fraction was pooled and evaporated. To remove the vast excess of cholesterol that interferes with subsequent gas chromatography-mass spectroscopy analysis, the evaporated residue was dissolved in 0.5 ml of chloroform/acetone (35:25, vol/vol) and applied to a Bond Elut SI cartridge (Varian, 500 mg). Cholesterol was removed by washing with 6 ml of chloroform/acetone (35:25, vol/vol), and sterols were eluted with 7 ml of chloroform/acetone/methanol (35:25:20, vol/vol/vol). The sterol fraction was evaporated and dissolved in acetonitrile, and a portion was silylated with N,O-bis(trimethylsilyl)-trifluoroacetamide containing 1% trimethylchlorosilane (Pierce). The silylated material was analyzed by using a Shimadzu model GC-17A gas chromatograph with a QP5000 mass spectral detector and a Hewlett-Packard Ultra 2 (cross-linked-siloxane) column. The injector port was kept at 250° C., interface temperature was kept at 280° C., and oven temperature was kept at 50° C. followed by a gradient of 30° C. min^−1 up to 300° C. The electron impact ionization source was at 70 eV. 5β-cholestane-3α, 7α, 12α-triol levels were determined by comparison to a standard curve. For transfection studies, the sterol fraction was dissolved in DMSO and added to the cell-culture media. containing DMEM with 10% delipidated FBS."}, "[1]": {"test_system": "PXR target genes cyp3a11, cyp2c, and oatp2", "assay": "Northern analysis of PXR target genes in primary mouse hepatocytes", "assay_type": "cell-based", "conditions": "10 μM, 24 h, FIG. 5", "procedure": "Primary mouse hepatocytes were treated with compounds (10 μM), and Northern analysis was performed using the probes as described in Example III.\nAdditionally, a Northern blot analysis of PXR target genes can be used to determine whether or not a molecule or compound is a PXR agonist. […] In this approach, hepatocytes are isolated, cultured in vitro, and exposed to a molecule or compound suspected to be a PXR agonist. Total RNA of the hepatocytes is isolated and subject to Northern blot analysis with probes of PXR target genes' fragments. The PXR target genes have transcriptional regulatory regions that interact with the DNA binding domain of a PXR. When a PXR agonist interacts or binds to the ligand binding domain of a PXR, the DNA binding domain of a PXR interacts with the transcriptional regulatory region of the target genes and activates the expression of the target genes. Consequently, an enhanced expression of target genes is observed in the Northern blot analysis. Commonly used target genes' fragments include cyp3a11, nucleotides from #1,065 to #1,569 of GenBank accession no. X60452; cyp2c, nucleotides from #787 to #1,193 of GenBank accession no. AK008580; and oatp2, nucleotides 2,124-2,486 of GenBank accession no. NM_021471. gapdh, nucleotides from #590 to #1,089 of GenBank accession no. NM_008094, is used as a control since gapdh is not regulated by the activation of a PXR. […]"}},
  "data": [
    {"compound": "CC(=O)[C@H]1[C@H](C#N)C[C@H]2[C@@H]3CC=C4C[C@@H](O)CC[C@]4(C)[C@H]3CC[C@@]21C", "note": "[PCN, pregnenolone-16α-carbonitrile]", "values": [
      {"measurement": "activation of GAL-mouse PXR (in words)", "setting": "mouse PXR", "result": "very effective agonist"},
      {"measurement": "induction of PXR target genes cyp3a11, cyp2c, oatp2 (in words)", "setting": "[1]", "result": "activated expression of the PXR target genes cyp3a11, cyp2c, and oatp2"}
    ]}
  ]
}
